# Assay results as given in US20100255580A1, “Differentiation of Human Embryonic Stem Cells” (LIFESCCAN, INC., priority 2007, published 2010).
# System: H9 embryonic stem cells
# Format: cell-based, human
# Conditions: low serum
# Protocol: Controls for each group included cells plated on […]-coated dishes and cultured in MEF-conditioned medium or cells plated on MEFs and cultured in ES medium. All groups contained three biological replicates and each biological replicate was repeated on two separate gene chips.
# Sample preparation, hybridization, and image analysis were performed according to the Affymetrix Human Genome U133 Plus 2.0 Array. Following normalization and a log transformation, data analysis was performed using OmniViz® software (MA) and […] (VizXLabs, WA). Significant differences in gene expression between the samples were evaluated using analysis of variance and an F-test with adjusted P-value (Benjamini and
# Hochberg correction) of ≦b 0.05. Only genes with a present call in at least one group were included in the analysis.
substance,measurement,setting,value
Activin A: a member of the TGFβ superfamily; R&D Systems; Group 2 = Activin A (100 ng/ml),"log intensity, nudix (nucleoside diphosphate linked moiety X)-type motif 4",on MATRIGEL,2.095
same,"log intensity, olfactory receptor, family 52, subfamily A, member 1 (OR52A1)",on MATRIGEL,−0.3096
same,"log intensity, oxoglutarate dehydrogenase (lipoamide) (OGDH)",on MATRIGEL,−0.03259
same,"log intensity, partial LHX9 gene for LIM-homeobox 9, 3UTR",on MATRIGEL,−2.2486
same,"log intensity, partial mRNA for putative nuclear factor",on MATRIGEL,1.552
same,"log intensity, phosphatidylinositol-4-phosphate 5-kinase, type I, beta (PIP5K1B)",on MATRIGEL,1.349
same,"log intensity, phosphofructokinase, liver (PFKL)",on MATRIGEL,2.039
same,"log intensity, pilin-like transcription factor (PILB)",on MATRIGEL,3.145
same,"log intensity, pleiomorphic adenoma gene-like 1",on MATRIGEL,−0.6468
same,"log intensity, plexin A2",on MATRIGEL,0.9305
same,"log intensity, polycythemia rubra vera 1; cell surface receptor (PRV1)",on MATRIGEL,−1.196
same,"log intensity, porcupine (MG61)",on MATRIGEL,1.518
same,"log intensity, protease, serine, 4 (trypsin 4, brain)",on MATRIGEL,−0.3456
same,"log intensity, protein S (alpha) (PROS1)",on MATRIGEL,0.5776
same,"log intensity, protocadherin 10",on MATRIGEL,1.767
same,"log intensity, putative 47 kDa protein (r448)",on MATRIGEL,−0.1239
same,"log intensity, putative 47 kDa protein (r770)",on MATRIGEL,0.1565
same,"log intensity, putative sterol reductase SR-1 (TM7SF2)",on MATRIGEL,1.669
same,"log intensity, ras homolog gene family, member B",on MATRIGEL,−0.1231
same,"log intensity, receptor tyrosine kinase-like orphan receptor 2 (ROR2)",on MATRIGEL,1.533
same,"log intensity, regulator of G protein signalling 5 (RGS5)",on MATRIGEL,3.0091
same,"log intensity, ret finger protein-like 2 (RFPL2)",on MATRIGEL,−2.155
same,"log intensity, secreted apoptosis related protein 2 (SARP2)",on MATRIGEL,3.184
same,"log intensity, secreted frizzled-related protein 1",on MATRIGEL,1.649
same,"log intensity, sialyltransferase (STHM)",on MATRIGEL,−0.6871
same,"log intensity, signal transducer and activator of transcription 3 (acute-phase response factor)",on MATRIGEL,−0.8373
same,"log intensity, singed (Drosophila)-like (sea urchin fascin homolog like) (SNL)",on MATRIGEL,4.233
same,"log intensity, sodium dependent phosphate transporter isoform NaPi-IIb",on MATRIGEL,−0.3971
same,"log intensity, solute carrier (SLC25A18)",on MATRIGEL,0.4037
same,"log intensity, solute carrier family 9 (sodiumhydrogen exchanger), isoform 5 (SLC9A5)",on MATRIGEL,0.04749
same,"log intensity, stanniocalcin 1 (STC1), mRNA",on MATRIGEL,2.394
same,"log intensity, stanniocalcin 1 (r1113)",on MATRIGEL,2.487
same,"log intensity, testican 3 (HSAJ1454)",on MATRIGEL,−2.812
same,"log intensity, testis enhanced gene transcript (BAX inhibitor 1)",on MATRIGEL,−0.6952
same,"log intensity, thyrotropin-releasing hormone (TRH)",on MATRIGEL,−1.657
same,"log intensity, transcription factor 2, hepatic; LF-B3; variant hepatic nuclear factor (TCF2), transcript variant a",on MATRIGEL,−1.125
same,"log intensity, transcriptional activator of the c-fos promoter (CROC4)",on MATRIGEL,0.6664
same,"log intensity, transmembrane tyrosine kinase mRNA",on MATRIGEL,−0.006089
same,"log intensity, tropomodulin, clone MGC: 3643",on MATRIGEL,0.3488
same,"log intensity, tryptase, alpha",on MATRIGEL,2.991
same,"log intensity, tudor repeat associator with PCTAIRE 2",on MATRIGEL,2.158
same,"log intensity, tyrosine 3-monooxygenasetryptophan 5-monooxygenase activation protein, eta polypeptide (r705)",on MATRIGEL,2.985
same,"log intensity, tyrosine 3-monooxygenasetryptophan 5-monooxygenase activation protein, eta polypeptide (r966)",on MATRIGEL,3.483
same,"log intensity, AD036 mRNA",on MEFS,1.603
same,"log intensity, ADP-ribosylation factor 4-like (ARF4L)",on MEFS,4.48
same,"log intensity, BACE mRNA for beta-site APP cleaving enzyme I-476",on MEFS,1.446
same,"log intensity, BTB (POZ) domain containing 2 (BTBD2)",on MEFS,2.325
same,"log intensity, CXCR4 gene encoding receptor CXCR4",on MEFS,6.361
same,"log intensity, Cluster Incl. AB002344: Human mRNA for KIAA0346 gene (r901)",on MEFS,3.478
same,"log intensity, Cluster Incl. AB002344: Human mRNA for KIAA0346 gene (r941)",on MEFS,3.317
same,"log intensity, Cluster Incl. L37033: Human FK-506 binding protein homologue (FKBP38)",on MEFS,1.661
same,"log intensity, Cluster Incl. N80935: zb07g06.s1 Homo sapiens cDNA",on MEFS,2.666
same,"log intensity, ESTs (r403)",on MEFS,2.715
same,"log intensity, ESTs (r404)",on MEFS,2.276
same,"log intensity, ESTs (r405)",on MEFS,−1.711
same,"log intensity, ESTs (r442)",on MEFS,5.906
same,"log intensity, ESTs (r453)",on MEFS,−2.153
same,"log intensity, ESTs (r473)",on MEFS,0.8364
same,"log intensity, ESTs (r491)",on MEFS,−0.4453
same,"log intensity, ESTs (r522)",on MEFS,2.214
same,"log intensity, ESTs (r523)",on MEFS,0.05049
same,"log intensity, ESTs (r524)",on MEFS,2.399
same,"log intensity, ESTs (r556)",on MEFS,0.7383
same,"log intensity, ESTs (r567)",on MEFS,1.124
same,"log intensity, ESTs (r627)",on MEFS,3.973
same,"log intensity, ESTs (r741)",on MEFS,2.614
same,"log intensity, ESTs (r745)",on MEFS,3.836
same,"log intensity, ESTs (r766)",on MEFS,2.128
same,"log intensity, ESTs (r767)",on MEFS,−0.3504
same,"log intensity, ESTs (r891)",on MEFS,−0.1307
same,"log intensity, ESTs (r916)",on MEFS,1.395
same,"log intensity, ESTs (r938)",on MEFS,−0.6132
same,"log intensity, ESTs (r980)",on MEFS,0.5547
same,"log intensity, ESTs (r1021)",on MEFS,0.6436
same,"log intensity, ESTs (r1022)",on MEFS,3.471
same,"log intensity, ESTs (r1059)",on MEFS,2.077
same,"log intensity, ESTs (r1060)",on MEFS,2.463
same,"log intensity, ESTs (r1110)",on MEFS,3.792
same,"log intensity, ESTs (r1115)",on MEFS,2.521
same,"log intensity, ESTs, Highly similar to AF229172 1 class III myosin",on MEFS,0.002417
same,"log intensity, ESTs, Moderately similar to ALU4_HUMAN ALU SUBFAMILY SB2",on MEFS,−0.9837
same,"log intensity, ESTs, Moderately similar to JC4969 pig-c protein",on MEFS,−1.045
same,"log intensity, ESTs, Moderately similar to NFY-C",on MEFS,−0.2427
same,"log intensity, ESTs, Weakly similar to A46302 PTB-associated splicing factor, long form",on MEFS,2.695
same,"log intensity, ESTs, Weakly similar to ALU8_HUMAN ALU SUBFAMILY SX",on MEFS,4.578
same,"log intensity, ESTs, Weakly similar to ALUC_HUMAN",on MEFS,2.7193
same,"log intensity, ESTs, Weakly similar to ALUF_HUMAN",on MEFS,0.5876
same,"log intensity, ESTs, Weakly similar to KIAA1330 protein",on MEFS,1.182
same,"log intensity, ESTs, Weakly similar to KIAA1399 protein",on MEFS,2.8
same,"log intensity, ESTs, Weakly similar to T32252 hypothetical protein T15B7.2",on MEFS,3.333
same,"log intensity, ESTs, Weakly similar to Z132_HUMAN ZINC FINGER PROTEIN 13",on MEFS,2.122
same,"log intensity, F37Esophageal cancer-related gene-coding leucine-zipper motif (FEZ1)",on MEFS,2.104
same,"log intensity, FLICE-like inhibitory protein short form",on MEFS,4.928
same,"log intensity, GS1999full mRNA",on MEFS,0.8499
same,"log intensity, H1 histone family, member X (H1FX)",on MEFS,4.51
same,"log intensity, H2A histone family, member X",on MEFS,−0.04057
same,"log intensity, H. sapiens skeletal embryonic myosin light chain 1 (MLC1)",on MEFS,2.36
same,"log intensity, HT016 mRNA",on MEFS,2.452
same,"log intensity, Homo sapiens nudix (nucleoside diphosphate linked moiety X)-type motif (r1198)",on MEFS,6.428
same,"log intensity, Human DNA sequence from clone RP4-781L3 on chromosome 1p34.3-36.11",on MEFS,4.439
same,"log intensity, Human DNA sequence from clone RP11-446H13 on chromosome 10",on MEFS,2.12
same,"log intensity, Human MLC1emb gene for embryonic myosin alkaline light chain, promoter and exon 1",on MEFS,4.04
same,"log intensity, Human clone 23826 mRNA sequence",on MEFS,1.443
same,"log intensity, Human embryonic myosin alkali light chain (MLC1)",on MEFS,4.115
same,"log intensity, Human extracellular matrix protein 1 (ECM1)",on MEFS,1.376
same,"log intensity, Human mRNA for pro-alpha 1 (II) collagen 3end C-term.",on MEFS,2.157
same,"log intensity, Human rho GDI mRNA",on MEFS,−0.6515
same,"log intensity, KIAA0127 gene product (KIAA0127)",on MEFS,3.002
same,"log intensity, KIAA0346 protein",on MEFS,1.415
same,"log intensity, KIAA0418 gene product",on MEFS,0.03438
same,"log intensity, KIAA0761 protein",on MEFS,1.059
same,"log intensity, KIAA0882 protein",on MEFS,4.675
same,"log intensity, KIAA0918 protein",on MEFS,−0.575
same,"log intensity, KIAA1415 protein",on MEFS,1.743
same,"log intensity, KIAA1511 protein",on MEFS,1.575
same,"log intensity, Kruppel-like factor 8 (KLF8)",on MEFS,1.639
same,"log intensity, LIM homeobox protein 1 (LHX1)",on MEFS,0.08556
same,"log intensity, LYST-interacting protein LIP3",on MEFS,−0.3125
same,"log intensity, MAD (mothers against decapentaplegic, Drosophila) homolog 6 (MADH6)",on MEFS,3.5309
same,"log intensity, MYC-associated zinc finger protein (purine-binding transcription factor) (MAZ)",on MEFS,0.5113
same,"log intensity, Novel human mRNA from chromosome 22",on MEFS,3.058
same,"log intensity, PNAS-145 mRNA",on MEFS,4.2868
same,"log intensity, PRO1957 mRNA",on MEFS,4.227
same,"log intensity, PTPRF interacting protein, binding protein 2 (liprin beta 2)",on MEFS,2.773
same,"log intensity, Pig10 (PIG10)",on MEFS,1.098
same,"log intensity, SG2NA beta isoform",on MEFS,−1.534
same,"log intensity, Similar to B9 protein, clone MGC: 11339",on MEFS,2.292
same,"log intensity, Similar to RIKEN cDNA C330013D18 gene, clone MGC: 11226",on MEFS,1.427
same,"log intensity, Similar to lipase protein, clone MGC: 2843",on MEFS,0.9617
same,"log intensity, X75208 H. sapiens HEK2 mRNA for protein tyrosine kinase receptor",on MEFS,1.082
same,"log intensity, adaptor-related protein complex 3, beta 2 subunit (AP3B2)",on MEFS,1.074
same,"log intensity, adenylate cyclase 8 (brain) (ADCY8)",on MEFS,−2.261
same,"log intensity, alpha 2,8-sialyltransferase",on MEFS,1.055
same,"log intensity, aminolevulinate, delta-, dehydratase, clone MGC: 5057",on MEFS,2.769
same,"log intensity, annexin A6 (ANXA6), transcript variant 1",on MEFS,4.5
same,"log intensity, apolipoprotein A-II (APOA2)",on MEFS,4.759
same,"log intensity, apolipoprotein C-I (APOC1)",on MEFS,5.51
same,"log intensity, arrestin, beta 1 (ARRB1), transcript variant 1",on MEFS,−0.4092
